Results reported in patent publication US4562292A, “Trifluoromethylketone sulfides and reversible enzyme inhibition therewith” (priority 1983, dated 1985).
“Also recorded” adds a separate entry of the source.

Columns and labels:
[1] = target: T1, human brain neurotoxic esterase (Homo sapiens, UniProt Q8IY17); experiment: blocking of mepafox inhibition of neurotoxic esterase; format: biochemical; conditions: relative to the other compounds
T1 construct: from tissue; host or cells: human brain
T1 sequence (Q8IY17 1-1375): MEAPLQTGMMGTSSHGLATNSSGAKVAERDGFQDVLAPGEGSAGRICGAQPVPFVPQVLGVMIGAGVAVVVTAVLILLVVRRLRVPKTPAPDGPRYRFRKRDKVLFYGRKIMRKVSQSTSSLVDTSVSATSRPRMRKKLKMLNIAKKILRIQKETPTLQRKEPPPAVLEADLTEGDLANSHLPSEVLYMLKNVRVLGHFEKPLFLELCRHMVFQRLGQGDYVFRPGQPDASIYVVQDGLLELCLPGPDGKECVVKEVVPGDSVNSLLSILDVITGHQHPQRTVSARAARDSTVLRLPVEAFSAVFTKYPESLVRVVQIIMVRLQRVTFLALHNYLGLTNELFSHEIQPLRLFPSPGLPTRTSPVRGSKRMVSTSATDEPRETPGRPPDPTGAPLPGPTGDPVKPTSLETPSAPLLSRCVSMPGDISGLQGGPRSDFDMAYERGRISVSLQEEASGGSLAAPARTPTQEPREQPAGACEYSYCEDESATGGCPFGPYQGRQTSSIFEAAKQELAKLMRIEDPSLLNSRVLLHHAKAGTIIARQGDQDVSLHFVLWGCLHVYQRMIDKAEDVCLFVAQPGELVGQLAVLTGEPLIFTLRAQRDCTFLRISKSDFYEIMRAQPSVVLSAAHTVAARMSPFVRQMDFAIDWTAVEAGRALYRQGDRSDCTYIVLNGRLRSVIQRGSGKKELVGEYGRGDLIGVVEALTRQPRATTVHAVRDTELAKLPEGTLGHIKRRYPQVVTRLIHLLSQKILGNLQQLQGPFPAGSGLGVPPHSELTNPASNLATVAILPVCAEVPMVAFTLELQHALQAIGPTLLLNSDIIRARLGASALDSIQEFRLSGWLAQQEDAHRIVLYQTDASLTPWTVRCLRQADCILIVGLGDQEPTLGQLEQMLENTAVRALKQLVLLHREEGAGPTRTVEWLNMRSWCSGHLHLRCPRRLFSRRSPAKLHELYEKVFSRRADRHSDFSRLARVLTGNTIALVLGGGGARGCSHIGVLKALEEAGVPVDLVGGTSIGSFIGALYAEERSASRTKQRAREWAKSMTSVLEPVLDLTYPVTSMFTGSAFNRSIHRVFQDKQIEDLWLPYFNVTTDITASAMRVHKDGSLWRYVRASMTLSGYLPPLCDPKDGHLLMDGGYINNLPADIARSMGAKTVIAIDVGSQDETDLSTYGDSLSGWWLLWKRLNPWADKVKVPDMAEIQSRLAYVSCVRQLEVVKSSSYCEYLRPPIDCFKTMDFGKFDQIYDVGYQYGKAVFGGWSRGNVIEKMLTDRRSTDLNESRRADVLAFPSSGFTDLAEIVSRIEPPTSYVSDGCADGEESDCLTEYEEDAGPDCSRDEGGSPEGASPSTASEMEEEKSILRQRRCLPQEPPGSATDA
Description: The data in Table III were generated by determining what concentration of the various novel compounds were needed to block the inhibition of human brain neurotoxic esterase by a high concentration of mepafox.

T. ni larvae [2] = experiment: mortality of T. ni larvae after repeated topical applications; format: in vivo, Trichoplusia ni
Procedure: (§1) T. ni larvae are treated with 1 or 2μ liters of ethanol, with TFPOS, wit o-ethyl-S-phenyl phosphoramidothiolate (EPPAT), or with 1,1,1-trifluorotetradecan-2-one (TFT) in 1×10^-1 M ethanol solutions on the dorsum of the thorax three times per day (4, 12 and 17 hr after lights on) during the first two days of the last larval stadium. The insects were held under standard rearing conditions (27° C., 14 hr light, 10 hr dark). The time of pupation was checked daily at 4 hr after lights on and the pupae were checked for successful emergence two weeks later.
(§2) Larvae were treated on the dorsum of the thorax with 1 or 2μ liters of ethanol (control) and with 1 or 2μ liters, respectively, of 10^-1 M TFT, TFPOS, DTFT or EPPAT in ethanol, 3 times per day at 4, 12 and 17 h ALO (after lights on) on L5Dl and D2. Time of pupation was checked daily at 4 h ALO, and emergence was checked 2 weeks after treatment. L5Dl larvae 4 h ALO were also treated, but only once with 1μ liter ethanol or with 1μ liter of 10-1 M TFT, TFPOS, or EPPAT in ethanol, and then were bled at 1, 8, 12, 23, 28, or 32 h after treatment. Hemolymph was collected from five larvae, mixed and frozen at -60° C. until assayed for JHE and α-NAE activity. […] Death usually occured during the larval-pupal transformation, with the control mortality at 2μ liters of ethanol being 1%, TFT at 0.2M being 6%, an TFPOS being 4%.

T. ni larvae [3] = experiment: topical treatment of T. ni larvae, time of pupation; format: in vivo, Trichoplusia ni; conditions: 0.1 and 0.2μ mole per application, 3 times per day, L5D1 and D2, topical
Procedure: as §1, §2

T. ni JHE = experiment: removal of inhibitor by dialysis (reversibility of inhibition); format: biochemical, Trichoplusia ni
T. ni larvae [4] = conditions: cited from earlier work
JH esterase = conditions: crude juvenile hormone esterase from the cabbage looper; cited from earlier work

Compound	potency in blocking neurotoxic esterase [1]	mortality at 0.2 µmol/application (T. ni larvae [2]; Trichoplusia, topical, repeated applications of 2μ liters (0.2 moles/application), Example VIII)	mortality (T. ni larvae [2]; repeated 1μ liter applications of 1×10^-1 M solution)	delay of pupation versus ethanol controls (T. ni larvae [3])	enzyme activity after dialysis (T. ni JHE; 48 hours after starting the dialysis)	t0.5 of reactivation (T. ni JHE; dialysis)	type of inhibition of T. ni JHE (T. ni JHE; dialysis)	in vivo activity, topical application to cabbage looper (literature) (T. ni larvae [4])	in vitro inhibition of juvenile hormone esterase (literature) (JH esterase)
O=C(CSc1ccc(Oc2ccc(SCC(=O)C(F)(F)F)cc2)cc1)C(F)(F)F [Compound 35]	most potent to date								
CCCCCCCCCCCCC(=O)C(F)(F)F [TFT, 1,1,1-trifluorotetradecan-2-one, reference compound]		6%	No mortality	neither dose of TFT resulted in a delay in pupation; also recorded: no difference in the time of pupation; also recorded: no such in vivo effect	restored gradually to the same activity as in the uninhibited enzyme	more than 20 hours	reversible inhibitors	lack of pronounced in vivo activity	relatively greater juvenile hormone esterase activity in vitro than EPPAT
